Data reported in US10131652B2, “Pyrimidinyloxy benzene derivatives as herbicides” (E. I. DU PONT DE NEMOURS AND COMPANY, priority 2014, dated 2018).
Like-named read-outs stand apart in the source and are kept apart here.

Key:
Assay in all cases: Test E pre-/postemergence plant response
Assay type in all cases: in vivo
[1] = tested on: wild buckwheat (Polygonum convolvulus); conditions: Fallopia convolvulus, scale 0 to 100, read-out: Plant response rating, Buckwheat, Wild; for pest or weed control at 16 g/ha: 16 g ai/ha; for pest or weed control at 31 g/ha: 31 g ai/ha; for pest or weed control at 62 g/ha: 62 g ai/ha; for pest or weed control at 125 g/ha: 125 g ai/ha
Source text: (§1) Seeds of plant species selected from bluegrass (annual bluegrass, Poa annua), blackgrass (Alopecurus myosuroides), canarygrass (Phalaris minor), chickweed (common chickweed, Stellaria media), galium (catchweed bedstraw, Galium aparine), downy bromegrass (Bromus tectorum), field poppy (Papaver rhoeas), field violet (Viola arvensis), green foxtail (Setaria viridis), deadnettle (henbit deadnettle, Lamium amplexicaule), Italian ryegrass (Lolium multiflorum), kochia (Kochia scoparia), lambsquarters (Chenopodium album), oilseed rape (Brassica napus), pigweed (Amaranthus retroflexus), Russian thistle (Salsola iberica), chamomile (scentless chamomile, Matricaria inodora), speedwell (bird's-eye speedwell, Veronica persica), spring barley (Hordeum vulgare), spring wheat (Triticum aestivum), wild buckwheat (Polygonum convolvulus), wild mustard (Sinapis arvensis), wild oat (Avena fatua), wild radish (Raphanus raphanistrum), windgrass (Apera spica-venti), winter barley (Hordeum vulgare), and winter wheat (Triticum aestivum) were planted into a silt loam soil and treated preemergence with test chemicals formulated in a non-phytotoxic solvent mixture which included a surfactant. At the same time, these species were planted in pots containing Redi-Earth® planting medium (Scotts Company, 14111 Scottslawn Road, Marysville, Ohio 43041) comprising spaghnum peat moss, vermiculite, wetting agent and starter nutrients and treated with postemergence applications of the test chemicals formulated in the same manner. Plants ranged in height from 2 to 18 cm (1- to 4-leaf stage).
(§2) Treated plants and controls were maintained in a controlled growth environment for 7 to 21 days after which time all species were compared to controls and visually evaluated. Plant response ratings, summarized in Table E, are based on a scale of 0 to 100 where 0 is no effect and 100 is complete control. A dash (-) response means no test result.

wild oat (Avena fatua) = conditions: scale 0 to 100, read-out: Plant response rating, Oat, Wild; for pest or weed control at 16 g/ha: 16 g ai/ha; for pest or weed control at 31 g/ha: 31 g ai/ha; for pest or weed control at 62 g/ha: 62 g ai/ha; for pest or weed control at 125 g/ha: 125 g ai/ha
Source text: as §1, §2

[2] = tested on: chamomile (scentless chamomile, Matricaria inodora); conditions: Tripleurospermum inodorum, post-emergence, Postemergence, scale 0 to 100, read-out: Plant response rating, Chamomile
Source text: as §1, §2

[3] = tested on: downy bromegrass (Bromus tectorum); conditions: scale 0 to 100, read-out: Plant response rating, Bromegrass, Downy; for pest or weed control at 16 g/ha: 16 g ai/ha; for pest or weed control at 31 g/ha: 31 g ai/ha; for pest or weed control at 62 g/ha: 62 g ai/ha; for pest or weed control at 125 g/ha: 125 g ai/ha
Source text: as §1, §2

[4] = tested on: deadnettle (henbit deadnettle, Lamium amplexicaule); conditions: scale 0 to 100, read-out: Plant response rating, Deadnettle; for pest or weed control at 16 g/ha: 16 g ai/ha; for pest or weed control at 31 g/ha: 31 g ai/ha; for pest or weed control at 62 g/ha: 62 g ai/ha; for pest or weed control at 125 g/ha: 125 g ai/ha
Source text: as §1, §2

[5] = tested on: oilseed rape (Brassica napus); conditions: scale 0 to 100, read-out: Plant response rating, Oilseed Rape; for plant injury at 16 g/ha: 16 g ai/ha; for plant injury at 31 g/ha: 31 g ai/ha; for plant injury at 62 g/ha: 62 g ai/ha; for plant injury at 125 g/ha: 125 g ai/ha
Source text: as §1, §2

[6] = tested on: winter barley (Hordeum vulgare); conditions: scale 0 to 100, read-out: Plant response rating, Barley, Winter; for plant injury at 16 g/ha: 16 g ai/ha; for plant injury at 31 g/ha: 31 g ai/ha; for plant injury at 62 g/ha: 62 g ai/ha; for plant injury at 125 g/ha: 125 g ai/ha
Source text: as §1, §2

[7] = tested on: spring wheat (Triticum aestivum); conditions: scale 0 to 100, read-out: Plant response rating, Wheat, Spring; for plant injury at 16 g/ha: 16 g ai/ha; for plant injury at 62 g/ha: 62 g ai/ha; for plant injury at 125 g/ha: 125 g ai/ha
Source text: as §1, §2

[8] = tested on: field poppy (Papaver rhoeas); conditions: scale 0 to 100, read-out: Plant response rating, Field Poppy; for pest or weed control at 16 g/ha: 16 g ai/ha; for pest or weed control at 31 g/ha: 31 g ai/ha; for pest or weed control at 62 g/ha: 62 g ai/ha; for pest or weed control at 125 g/ha: 125 g ai/ha
Source text: as §1, §2

[9] = tested on: windgrass (Apera spica-venti); conditions: scale 0 to 100, read-out: Plant response rating, Windgrass; for pest or weed control at 16 g/ha: 16 g ai/ha; for pest or weed control at 62 g/ha: 62 g ai/ha; for pest or weed control at 125 g/ha: 125 g ai/ha
Source text: as §1, §2

[10] = tested on: canarygrass (Phalaris minor); conditions: scale 0 to 100, read-out: Plant response rating, Canarygrass; for pest or weed control at 16 g/ha: 16 g ai/ha; for pest or weed control at 31 g/ha: 31 g ai/ha; for pest or weed control at 62 g/ha: 62 g ai/ha; for pest or weed control at 125 g/ha: 125 g ai/ha
Source text: as §1, §2

[11] = post-emergence, 31 g ai/ha, Postemergence

With `FC(F)c1cc(-c2ccccc2Oc2ncc(Cl)cn2)on1` [Compound 53, 5-chloro-2-[2-[3-(difluoromethyl)-5-isoxazolyl]phenoxy]pyrimidine] the pest or weed control at 16 g/ha ([1]; post-emergence, Postemergence) was 70%, the pest or weed control at 31 g/ha ([1]; post-emergence, Postemergence) was 65% and the pest or weed control at 62 g/ha ([1]; post-emergence, Postemergence) was 90%. For the same molecule, the pest or weed control at 125 g/ha ([1]; post-emergence, Postemergence) was 95%, the pest or weed control at 16 g/ha ([1]; pre-emergence, Preemergence) was 65% and the pest or weed control at 31 g/ha ([1]; pre-emergence, Preemergence) was 100%. It also gave a pest or weed control at 62 g/ha ([1]; pre-emergence, Preemergence) of 100%, a pest or weed control at 125 g/ha ([1]; pre-emergence, Preemergence) of 100% and a pest or weed control at 16 g/ha (wild oat (Avena fatua); post-emergence, Postemergence) of 5%. For the same molecule, the pest or weed control at 31 g/ha (wild oat (Avena fatua); post-emergence, Postemergence) was 5%, the pest or weed control at 62 g/ha (wild oat (Avena fatua); post-emergence, Postemergence) was 10% and the pest or weed control at 125 g/ha (wild oat (Avena fatua); post-emergence, Postemergence) was 25%. For the same molecule, the pest or weed control at 16 g/ha (wild oat (Avena fatua); pre-emergence, Preemergence) was 0%, the pest or weed control at 31 g/ha (wild oat (Avena fatua); pre-emergence, Preemergence) was 0% and the pest or weed control at 62 g/ha (wild oat (Avena fatua); pre-emergence, Preemergence) was 10%. It also gave a pest or weed control at 125 g/ha (wild oat (Avena fatua); pre-emergence, Preemergence) of 25%, a pest or weed control at 16 g/ha ([2]; 16 g ai/ha) of 5% and a pest or weed control at 31 g/ha ([2]; 31 g ai/ha) of 5%. For the same molecule, the pest or weed control at 62 g/ha ([2]; 62 g ai/ha) was 5%, the pest or weed control at 125 g/ha ([2]; 125 g ai/ha) was 0% and the pest or weed control at 16 g/ha ([3]; post-emergence, Postemergence) was 0%. For the same molecule, the pest or weed control at 31 g/ha ([3]; post-emergence, Postemergence) was 0%, the pest or weed control at 62 g/ha ([3]; post-emergence, Postemergence) was 5% and the pest or weed control at 125 g/ha ([3]; post-emergence, Postemergence) was 5%. The pest or weed control at 16 g/ha ([3]; pre-emergence, Preemergence) was 0%, the pest or weed control at 31 g/ha ([3]; pre-emergence, Preemergence) was 15% and the pest or weed control at 62 g/ha ([3]; pre-emergence, Preemergence) was 15%. The pest or weed control at 125 g/ha ([3]; pre-emergence, Preemergence) was 15%, the pest or weed control at 16 g/ha ([4]; post-emergence, Postemergence) was 20% and the pest or weed control at 31 g/ha ([4]; post-emergence, Postemergence) was 30%. It also gave a pest or weed control at 62 g/ha ([4]; post-emergence, Postemergence) of 60%, a pest or weed control at 125 g/ha ([4]; post-emergence, Postemergence) of 65% and a pest or weed control at 16 g/ha ([4]; pre-emergence, Preemergence) of 10%. For the same molecule, the pest or weed control at 31 g/ha ([4]; pre-emergence, Preemergence) was 10%, the pest or weed control at 62 g/ha ([4]; pre-emergence, Preemergence) was 50% and the pest or weed control at 125 g/ha ([4]; pre-emergence, Preemergence) was 65%. For the same molecule, the plant injury at 16 g/ha ([5]; post-emergence, Postemergence) was 70%, the plant injury at 31 g/ha ([5]; post-emergence, Postemergence) was 75% and the plant injury at 62 g/ha ([5]; post-emergence, Postemergence) was 80%. For the same molecule, the plant injury at 125 g/ha ([5]; post-emergence, Postemergence) was 80%, the plant injury at 16 g/ha ([5]; pre-emergence, Preemergence) was 50% and the plant injury at 31 g/ha ([5]; pre-emergence, Preemergence) was 75%. For the same molecule, the plant injury at 62 g/ha ([5]; pre-emergence, Preemergence) was 100%, the plant injury at 125 g/ha ([5]; pre-emergence, Preemergence) was 100% and the plant injury at 16 g/ha ([6]; post-emergence, Postemergence) was 5%. For the same molecule, the plant injury at 31 g/ha ([6]; post-emergence, Postemergence) was 5%, the plant injury at 62 g/ha ([6]; post-emergence, Postemergence) was 5% and the plant injury at 125 g/ha ([6]; post-emergence, Postemergence) was 10%. It also gave a plant injury at 16 g/ha ([6]; pre-emergence, Preemergence) of 15%, a plant injury at 31 g/ha ([6]; pre-emergence, Preemergence) of 10% and a plant injury at 62 g/ha ([6]; pre-emergence, Preemergence) of 30%. The plant injury at 125 g/ha ([6]; pre-emergence, Preemergence) was 25%, the plant injury at 16 g/ha ([7]; post-emergence, Postemergence) was 10% and the plant injury at 31 g/ha [7, 11] was 10%. The plant injury at 62 g/ha ([7]; post-emergence, Postemergence) was 20%, the plant injury at 125 g/ha ([7]; post-emergence, Postemergence) was 35% and the plant injury at 16 g/ha ([7]; pre-emergence, Preemergence) was 5%. It also gave a plant injury at 62 g/ha ([7]; pre-emergence, Preemergence) of 10%, a plant injury at 125 g/ha ([7]; pre-emergence, Preemergence) of 10% and a pest or weed control at 16 g/ha ([8]; post-emergence, Postemergence) of 60%. The pest or weed control at 31 g/ha ([8]; post-emergence, Postemergence) was 65%, the pest or weed control at 62 g/ha ([8]; post-emergence, Postemergence) was 80% and the pest or weed control at 125 g/ha ([8]; post-emergence, Postemergence) was 80%. For the same molecule, the pest or weed control at 16 g/ha ([8]; pre-emergence, Preemergence) was 100%, the pest or weed control at 31 g/ha ([8]; pre-emergence, Preemergence) was 100% and the pest or weed control at 62 g/ha ([8]; pre-emergence, Preemergence) was 100%. For the same molecule, the pest or weed control at 125 g/ha ([8]; pre-emergence, Preemergence) was 100%, the pest or weed control at 16 g/ha ([9]; post-emergence, Postemergence) was 5% and the pest or weed control at 31 g/ha [9, 11] was 5%. The pest or weed control at 62 g/ha ([9]; post-emergence, Postemergence) was 10%, the pest or weed control at 125 g/ha ([9]; post-emergence, Postemergence) was 20% and the pest or weed control at 16 g/ha ([9]; pre-emergence, Preemergence) was 0%. It also gave a pest or weed control at 62 g/ha ([9]; pre-emergence, Preemergence) of 35%, a pest or weed control at 125 g/ha ([9]; pre-emergence, Preemergence) of 50% and a pest or weed control at 16 g/ha ([10]; post-emergence, Postemergence) of 5%. For the same molecule, the pest or weed control at 31 g/ha ([10]; post-emergence, Postemergence) was 10%, the pest or weed control at 62 g/ha ([10]; post-emergence, Postemergence) was 25% and the pest or weed control at 125 g/ha ([10]; post-emergence, Postemergence) was 40%. The pest or weed control at 16 g/ha ([10]; pre-emergence, Preemergence) was 10%, the pest or weed control at 31 g/ha ([10]; pre-emergence, Preemergence) was 20% and the pest or weed control at 62 g/ha ([10]; pre-emergence, Preemergence) was 65%. For the same molecule, the pest or weed control at 125 g/ha ([10]; pre-emergence, Preemergence) was 95%.
